According to ChEMBL document CHEMBL3988442, “University of Dundee, Small-Polar-MMV Screening Library” (2021):

What was measured:
[1] = microbe, parasite or virus in culture; conditions: Mycobacterium tuberculosis, 96 h, read-out: pIC50 (converted)
[2] = microbe, parasite or virus in culture; conditions: Mycobacterium tuberculosis, 72 h, read-out: pIC50 (converted)

| Compound | IC50 [1] [µM] | IC50 [2] [µM] |
| --- | --- | --- |
| CC(C)n1nnc(CC(=O)NCC2(c3cccc(F)c3)CCCC2)n1 | > 50.1 | > 50.1 |
| Cc1cncc(NS(=O)(=O)CCc2ccccc2)c1 | > 501 | 314 |
| C=C(C)c1nc(C#N)c(NCc2ccco2)o1 | 170 | 142 |
| O=C(O)[C@@H]1CN(Cc2ccc(-c3cc[nH]n3)s2)C[C@H]1C1CC1 | > 50.1 | > 50.1 |
| CC(C)(C)OC(=O)N1CCCC1CN (centres undefined) | 207 | 368 |
| CC(C)N(C)S(=O)(=O)NCCc1cccs1 | 206 | 182 |
| Cc1cc(N2CCN(C(=O)Cc3ccc4c(c3)OCO4)CC2)cc(C)n1 | > 50.1 | > 50.1 |
| Cc1ccc(CNc2ccccc2-n2ccc(C)n2)nc1 | 24.5 | > 50.1 |
| CN(Cc1cnccn1)S(=O)(=O)c1ccc(C(F)(F)F)nc1 | > 50.1 | > 50.1 |
| CNC(=O)C1CN(C(=O)c2cccs2)CCN(S(C)(=O)=O)C1 (centres undefined) | > 50.1 | > 50.1 |
| CCNC(=O)CN(CC)S(=O)(=O)c1ccc(C)cc1 | > 501 | 295 |
| COc1ccc2c(c1)NCC(C)O2 (centres undefined) | 214 | 94.8 |
| Cc1cccc(C[S+]([O-])CC(=O)NCC2CC2)c1 (centres undefined) | > 501 | > 501 |
| CC(C)CNc1nc(N)c2cn[nH]c2n1 | 234 | 80 |
| NC(=O)C1CCCN(CCc2ccccc2)C1 (centres undefined) | > 501 | > 501 |
| CCc1nnsc1C(=O)NC(CC(C)C)C(=O)OC (centres undefined) | > 50.1 | > 50.1 |
| CCOCCN1CCn2c(C)nnc2C1 | > 50.1 | > 50.1 |
| O=C(CCn1cccn1)N1CCc2sccc2C1 | > 501 | 117 |
| OCC1CN(c2ncc(Cl)cc2F)CCO1 (centres undefined) | 180 | 115 |
| COCCNCC(=O)Nc1cccc(CSC)c1 | > 501 | 374 |
| CCc1nc(CN(C)C2CCN(CCC(=O)N3CCCCC3)C2)no1 (centres undefined) | > 50.1 | > 50.1 |
| CCCC(C)N(C)Cc1nnc(-c2ccco2)o1 (centres undefined) | 29.5 | 5.32 |
| O=C(NCCN1CCCC1)c1ccc2ccccc2n1 | 249 | 146 |
| CC1Cc2ccccc2N1C(=O)c1ccccn1 (centres undefined) | > 501 | > 501 |
| Cn1cc(CNC(=O)c2cccc(I)c2)cn1 | 70.2 | 166 |
| COc1cccc(CNc2ccccn2)c1O | > 501 | > 501 |

| Compound | IC50 [1] [µM] | IC50 [2] [µM] |
| --- | --- | --- |
| CC(c1nc(-c2ccccn2)no1)N1CCSCC1 (centres undefined) | 115 | 86.8 |
| Cc1ccccc1C(=O)N1CC[C@@H]2CN(c3ncccn3)CCO[C@@H]2C1 | > 50.1 | > 50.1 |
| O=C(CNc1ccc(Br)cc1)NCc1ncc[nH]1 | > 501 | 228 |
| CCN1CCC(CNCc2c[nH]nc2C(C)(C)C)C1 (centres undefined) | 16.4 | > 50.1 |
| COCCC1(CNC(=O)NCC2CCCS2)CCCC1 (centres undefined) | > 50.1 | > 50.1 |
| CCc1ccccc1OC1CN(C(=O)c2ccnc(OC)c2)C1 | 43.4 | 21.3 |
| Cc1nc(C(=O)NCCN2CCCC2)c(C)s1 | > 501 | 308 |
| C=Cc1ccc(CN2C(=O)C3(CCNCC3)Nc3ccccc32)cc1 | 26.5 | 28.2 |
| CC(O)CNCCNCc1ccc(-c2ccccc2)o1 (centres undefined) | 113 | 275 |
| NCCc1nsc2ccccc12 | 189 | 129 |
| CNC(=O)NC(=O)CSc1ccccc1F | > 501 | > 501 |
| CC(O)(CNc1ncccc1F)C1CCCC1 (centres undefined) | 262 | 142 |
| NCCSCc1ccccc1F | 275 | 231 |
| Clc1ccc(Cc2nc(CNCCn3cccn3)cs2)cc1 | 24.8 | 22.8 |
| CCC1c2ccsc2CCN1CC(=O)NC (centres undefined) | > 501 | > 501 |
| CC(C)C1CN(C(=O)c2ccccc2)CCS1 (centres undefined) | 12.6 | 8.62 |
| Cc1cc2c(cc1CNC(Cc1cccs1)c1nccs1)OCO2 (centres undefined) | > 50.1 | 24.4 |
| O=C(CCc1ccc(Br)cc1)NCCc1nnc[nH]1 | > 50.1 | > 50.1 |
| Cc1ccc(CCNc2ncc(C)c(-c3ccnn3C)n2)s1 | > 50.1 | 11.2 |
| O=C(NC1CCc2ccc(F)cc21)c1c[nH]nn1 (centres undefined) | 399 | > 501 |
| NCC(=O)N(Cc1cccs1)Cc1cccs1 | 68.7 | 114 |
| COC(=O)CCNS(=O)(=O)c1ccc(OC)cc1 | > 501 | > 501 |
| C=C(Br)Cn1c(CO)nc2ccccc21 | > 501 | > 501 |
| COCC(C)Nc1cccc(F)c1C#N (centres undefined) | > 501 | > 501 |
| O=C(Nc1ccc(Cl)cn1)c1ccncc1 | > 501 | 304 |
| Cc1cnc(NC(=O)c2cccc(CN(C)Cc3ccno3)c2)s1 | 37.3 | 36.1 |

| Compound | IC50 [1] [µM] | IC50 [2] [µM] |
| --- | --- | --- |
| CCNC(=O)NCCOC(=O)c1cccc2cc[nH]c12 | > 501 | > 501 |
| CCc1nc(C2CCCN2C(=O)CCCOc2cccc(F)c2)no1 (centres undefined) | > 50.1 | > 50.1 |
| NC(=O)CC1CCCC1 | > 501 | > 501 |
| CC(C)(C)c1ccc2c(c1)C(N)C(=O)N2 (centres undefined) | 260 | 377 |
| COc1cc2c(cc1CNC(Cc1cccs1)c1nccs1)OCO2 (centres undefined) | 17.3 | > 50.1 |
| CN(Cc1ccccc1)CC1(O)CCCN(CCC2CCCCC2)C1=O (centres undefined) | > 50.1 | > 50.1 |
| NCc1ccnc(OCC(F)(F)F)c1 | 88.7 | 50 |
| COc1cccc(Cl)c1CN1CCCNCC1 | 251 | 228 |
| O=C(c1cc(COc2ccc3c(c2)OCO3)[nH]n1)N1CCCCO1 | 17.8 | > 50.1 |
| CC(C)Oc1ccc(C(CN)N(C)C)cc1 (centres undefined) | 225 | 133 |
| CCOC(=O)CNC(=O)c1ccc2c(c1)OCCO2 | > 501 | > 501 |
| Cc1nn2c(NCC(=O)NC3CC3)cc(-c3ccccc3)nc2c1C | 12.1 | 13.4 |
| O=C1NCC(C(=O)NCCCc2ccc(Cl)cc2)N1 (centres undefined) | > 501 | > 501 |
| COc1coc(CN2CCCC(CCc3ccccc3C)C2)cc1=O (centres undefined) | 16.2 | 16.1 |
| Cc1cc(C2CCC2)nc(N2CCNC(=O)C2)n1 | 44.3 | 119 |
| Cc1cc(C(=O)NCCCN(C)CC(F)(F)F)no1 | > 501 | > 501 |
| CCC(C)(C)NC(=O)c1nnn(-c2ccccc2)c1C | 282 | 311 |
| CC(C(=O)Nc1ccc(Br)cc1)n1cnnn1 (centres undefined) | 199 | 393 |
| CNc1nc(NCCS(C)(=O)=O)ncc1Br | > 501 | > 501 |
| CN(C)c1nccc(CNc2ccc(C#N)nc2)n1 | 249 | 128 |
| CN(CC(=O)Nc1ccsc1)C(=O)c1ccco1 | > 501 | > 501 |
| NC1CCN(c2ncccc2F)C1 (centres undefined) | > 501 | 462 |
| CS(=O)(=O)NCC1CCCN(c2ncc(Cl)cc2F)C1 (centres undefined) | > 501 | 159 |
| CCc1noc(Cn2nc(C(F)(F)F)ccc2=O)n1 | 365 | 47.8 |
| Cn1cc(CN2CC[C@@H]3[C@@H](CCC(=O)N3CCC3=CCCCC3)C2)cn1 | > 50.1 | > 50.1 |
